# Assay results as given in US12227512B2, “Benzimidazoles and methods of using same” (priority 2019, dated 2025).
# Like-named read-outs stand apart in the source and are kept apart here.
# How the values were obtained:
# [1] = tested on: Gli-luciferace activity in the SUFU-KO-light cells; experiment: SUFU-KO-Light assay, inhibition of Gli-luciferase activity; format: cell-based
# Excerpt: IC50 SUFO-KO-Light values are for inhibition of Gli-luciferace activity in the SUFU-KO-light cells developed by the James Chen laboratory at Stanford University.
# [2] = tested on: Dengue virus 2 New Guinea C; experiment: In vitro antiviral screening, Visual (Virus yield reduction); details: Huh7; for SI90: Visual (Virus yield reduction)/Neutral Red (Toxicity); for EC90: Dengue virus, Visual (Virus yield reduction)
# [3] = Neutral Red (Toxicity) of the antiviral screening; details: African green monkey
# c-Myc and n-Myc = experiment: Western blot for c-Myc and n-Myc in Huh7.5 cells; format: cell-based; details: 2 μM compound, Western blotting
# Method: Referring to FIG. 8, the ability of Isis-11 (racemic) to inhibit c-Myc and n-Myc was evaluated. Huh7.5 cells were treated with 2 μM compound or no compound as a control. The cells were lysed and harvested at the indicated times. Western blotting was performed using antibodies as shown after serial stripping. […] YB-1 is known to be part of a positive feedback loop with Myc and is also affected by Myc inhibition.
# Zika MR766 [4] = experiment: In vitro antiviral screening, Visual (Virus yield reduction); details: Vero 76; for SI90: Assay No. 3, Visual (Virus yield reduction)/Neutral Red (Toxicity); for EC90: Zika virus
# [5] = tested on: Raji (Burkitt Lymphoma cell line); experiment: Raji cell viability / proliferation; details: Homo sapiens, read-out: IC50, Raji cell proliferation
# [6] = tested on: Hedgehog signaling (Gli transcription factors); experiment: Hedgehog pathway inhibition, cell-based reporter derived from fibroblast SUFU knockouts; details: read-out: EC50, hedgehog inhibition potency
# [7] = tested on: Dengue virus 2 New Guinea C; experiment: In vitro antiviral screening, Neutral Red (Cytopathic effect); details: Huh7; for SI50: Neutral Red (Cytopathic effect/Toxicity); for EC50: Dengue virus, Neutral Red (Cytopathic effect)
# Zika MR766 [8] = experiment: as above; details: Vero 76; for SI50: Assay No. 3, Neutral Red (Cytopathic effect/Toxicity); for EC50: Zika virus
# [9] = tested on: Hedgehog signaling (Gli transcription factors); experiment: Hedgehog pathway inhibition, cell-based reporter sensitive to Shh ligand; details: read-out: EC50, hedgehog inhibition potency
# Gli-1 and c-Myc = experiment: Western blot of Gli-1 and c-Myc in SUFU-KO-Light cells; format: cell-based; details: 48 hours, immunoblotting
# [10] = tested on: cap-dependent and Myc 5'-UTR cap-independent translation; experiment: Dual luciferase Myc 5' UTR translation reporter in Huh 7.5 cells; format: cell-based; details: Renilla (5' cap) / firefly (Myc 5' UTR) luciferase
# Excerpt: The dual luciferase plasmid construct described by Willis and co-workers was transfected into Huh 7.5 cells. The Renilla luciferase cistron is translated from a 5′ cap, then the Myc 5′ UTR is placed in front of firefly luciferase to evaluate cap-independent translation from the same mRNA. […] This assay is a proxy for c-Myc translation activity. See also Stoneley et al. (2000) Nucleic Acids Res. 28: 687-94.
# [11] = Neutral Red (Toxicity) of the antiviral screening; details: human
# CML CD34+ cells = experiment: Colony-forming assay, Chronic Myeloid Leukemia; details: for CML CD34+ colony formation: 0 μM = 100
# [12] = tested on: Rift Valley Fever Virus (RVFV); details: reported value; cited from earlier work
# MB002 cells = experiment: MTT assay, cell proliferation; format: cell-based; details: MB002, MTT, dose for Fa=0.5 inhibition (50%)
# [13] = tested on: SUFU-KO-Light cells expressing Gli-luciferase; experiment: Dose-effect curves, dual-Glo luciferase, Compusyn; format: cell-based; details: SUFU-KO-Light, Gli-luciferase, Fa=0.5
# [14] = Huh-7, Control drug, Assay No. 1
# [15] = Huh-7, Control drug, Assay No. 2
# [16] = inhibition of Gli-luciferase activity, read-out: IC50 (μM) SUFU-KO-Light
smiles,measurement,setting,value
CN(C)CCCn1c(N)nc2ccc3c(c21)CC(CN(C)C)O3 (racemic) [Isis-11],IC50,"[1]; read-out: IC50 (μM) SUFU-KO-Light, inhibition of Gli-luciferase activity",0.2 µM
same,SI90,[2]; Assay No. 1,2.6
same,SI90,[2]; Assay No. 2,6.3
same,EC90,"[2]; Huh-7, Assay No. 1",2700 nM
same,EC90,"[2]; Huh-7, Assay No. 2",380 nM
same,CC50,[3],20000 nM
same,c-Myc and n-Myc protein,c-Myc and n-Myc,inhibited at the protein level
same,SI90,Zika MR766 [4],22
same,EC90,Zika MR766 [4],930 nM
same,IC50,[5],500 nM
same,EC50,[6],~100 nM
same,SI50,[7]; Assay No. 1,3.8
same,SI50,[7]; Assay No. 2,4.9
same,EC50,"[7]; Huh-7, Assay No. 1",1800 nM
same,EC50,"[7]; Huh-7, Assay No. 2",490 nM
same,SI50,Zika MR766 [8],23
same,EC50,Zika MR766 [8],880 nM
same,EC50,[9],~100 nM
same,Gli-1 and c-Myc levels,Gli-1 and c-Myc,decrease both Gli-1 and c-Myc
same,effect on cap-dependent and cap-independent translation,[10],inhibits both cap-dependent and cap-independent translation
same,CC50,"[11]; CC50, Assay No. 1, Neutral Red (Cytopathic effect/Toxicity) line",6900 nM
same,CC50,"[11]; CC50, Assay No. 1, Neutral Red (Toxicity), line of the virus yield reduction assay",6900 nM
same,CC50,"[11]; CC50, Assay No. 2, Neutral Red (Cytopathic effect/Toxicity) line",2400 nM
same,CC50,"[11]; CC50, Assay No. 2, Neutral Red (Toxicity), line of the virus yield reduction assay",2400 nM
same,colony formation,CML CD34+ cells; 0.8 μM,completely inhibited
same,CML CD34+ colony formation,"CML CD34+ cells; 14-290, 0.1 μM",91.81
same,CML CD34+ colony formation,"CML CD34+ cells; 14-290, 0.2 μM",19.40
same,CML CD34+ colony formation,"CML CD34+ cells; 14-290, 0.4 μM",12.50
same,CML CD34+ colony formation,"CML CD34+ cells; 14-290, 0.8 μM",0
same,CML CD34+ colony formation,"CML CD34+ cells; 14-290, 1.6 μM",0
same,CML CD34+ colony formation,"CML CD34+ cells; 15-186, 0.1 μM",87.06
same,CML CD34+ colony formation,"CML CD34+ cells; 15-186, 0.2 μM",52.10
same,CML CD34+ colony formation,"CML CD34+ cells; 15-186, 0.4 μM",38.81
same,CML CD34+ colony formation,"CML CD34+ cells; 15-186, 0.8 μM",0
same,CML CD34+ colony formation,"CML CD34+ cells; 15-186, 1.6 μM",0
same,CML CD34+ colony formation,"CML CD34+ cells; AVG, 0.1 μM",89.44
same,CML CD34+ colony formation,"CML CD34+ cells; AVG, 0.2 μM",35.75
same,CML CD34+ colony formation,"CML CD34+ cells; AVG, 0.4 μM",25.66
same,CML CD34+ colony formation,"CML CD34+ cells; AVG, 0.8 μM",0
same,CML CD34+ colony formation,"CML CD34+ cells; AVG, 1.6 μM",0
same,EC50,"CML CD34+ cells; read-out: EC50, CML CD34+ colony formation",~150 nM
same,EC50,"CML CD34+ cells; read-out: EC50, inhibition of colony formation",~150 nM
Nc1ncnc2c([C@H]3N[C@@H](CO)[C@H](O)[C@@H]3O)c[nH]c12 [BCX4430],EC50,[12],41600 nM
"N.N.[Cl][Pt][Cl] [Cisplatin, reference compound]",IC50,MB002 cells; read-out: Dose Cis,780 nM
"O=c1cnn([C@@H]2O[C@H](CO)[C@@H](O)[C@H]2O)c(=O)[nH]1 [Compound 6-azauridine, 6-azauridine, reference compound]",SI90,[2]; Assay No. 1,>10
same,SI90,[2]; Assay No. 2,15
same,EC90,[2]; [14],10 µg/mL
same,EC90,[2]; [15],1.8 µg/mL
same,CC50,[3]; Vero 76 cells,26.5 µg/mL
same,SI90,Zika MR766 [4],0
same,EC90,Zika MR766 [4],> 26.5 µg/mL
same,SI50,[7]; Assay No. 1,>19
same,SI50,[7]; Assay No. 2,15
same,EC50,[7]; [14],5.3 µg/mL
same,EC50,[7]; [15],1.8 µg/mL
same,SI50,Zika MR766 [8],40
same,EC50,Zika MR766 [8],0.66 µg/mL
same,CC50,"[11]; Huh7 cells, CC50, Control drug, Assay No. 1, Neutral Red (Cytopathic effect/Toxicity) line",> 100 µg/mL
same,CC50,"[11]; Huh7 cells, CC50, Control drug, Assay No. 1, Neutral Red (Toxicity), line of the virus yield reduction assay",> 100 µg/mL
same,CC50,"[11]; Huh7 cells, CC50, Control drug, Assay No. 2, Neutral Red (Cytopathic effect/Toxicity) line",27 µg/mL
same,CC50,"[11]; Huh7 cells, CC50, Control drug, Assay No. 2, Neutral Red (Toxicity), line of the virus yield reduction assay",27 µg/mL
CN(C)CC1COc2ccc3nc4n(c3c2C1)CC(CN(C)C)CN4 (stereo not drawn) [IBIS-560146],IC50,[1]; [16],> 2 µM
"CC(C)n1nc(-c2ccc3oc(N)nc3c2)c2c(N)ncnc21 [Ink-128, reference compound]",EC50,[13]; read-out: EC50 as single agent,6 nM
same,EC50,"[13]; unit from FIG. 15 legend, read-out: Dose Ink",6.13 nM
same,IC50,MB002 cells; read-out: Dose Ink,60 nM
CN(C)CCCn1c(N)nc2ccc(OCCN(C)C)cc21 [Isis-4],IC50,[1]; [16],10 µM
CN(C)CCCn1c(N)nc2ccc3c(c21)CC(CN(C)C)CO3 (stereo not drawn) [Isis-12],IC50,[1]; [16],1.5 µM
CN(C)CC1CNc2nc3ccc4c(c3n2C1)CC(CN(C)C)O4 (stereo not drawn) [Isis-075],IC50,[1]; [16],0.36 µM
"Cc1sc2c(c1C)C(c1ccc(Cl)cc1)=N[C@@H](CC(=O)OC(C)(C)C)c1nnc(C)n1-2 [JQ1, reference compound]",Gli-1 and c-Myc levels,Gli-1 and c-Myc,decrease both Gli-1 and c-Myc
